Experimental data taken from US11927585B2, “Solvent-based inks and coatings for food contact applications” (SUN CHEMICAL CORPORATION, priority 2020, dated 2024).

How the values were obtained:
[1] = Specific migration limit (SML) from regulation or hazard assessment (TTC, VEGA QSAR, Cramer Class); conditions: for SML (or restriction): Source of SML or restriction: HA (internal hazard assessment); for SML or Restriction (mg substance/kg food): source HA (internal hazard assessment), self-derived SML, EU Cube model
[2] = Worst-case calculation (100% migration), standard EU Cube exposure model; conditions: 100% migration; for Worst-case calculation as a percentage of SML (or restriction), EU Cube: 2.0 g/m^2 dry film; for Worst Case Calculation of migration in EU Cube model (as a percentage of SML): dry coat weight 2.0 g/m^2
[3] = Worst-case calculation, Application 2 cheese packaging wrap exposure scenario; conditions: 100% migration, 2.0 g/m^2 dry film
[4] = Worst-case calculation, Application 1 yoghurt pot lid exposure scenario; conditions: 100% migration, 2.0 g/m^2 dry film
[5] = substance in ink SBDEV980 (Ex. 4B Red)

O=Cc1ccc(-c2ccccc2)cc1 [4-Phenylbenzaldehyde]
SML (or restriction) [1]: 0.09 mg substance/kg food

O=Cc1ccc(-c2ccccc2)cc1 [0003218-36-8, 4-Phenylbenzaldehyde]
SML or Restriction (mg substance/kg food) [1]: 0.09 mg substance/kg food

N#Cc1ccc(-c2ccccc2)cc1 [0002920-38-9, 4-Phenylbenzonitrile]
Worst-case calculation as a percentage of SML (or restriction), EU Cube ([2]; product SBDEV980): 5 percentage of SML (or restriction)
Worst-case calculation as a percentage of SML (or restriction), EU Cube ([2]; product SBDEV1285): 5 percentage of SML (or restriction)
Worst Case Calculation of migration in EU Cube model (as a percentage of SML) [2, 5]: 5 percentage of SML
Worst-case calculation as a percentage of SML (or restriction), Application 2 ([3]; product SBDEV980): 7.2 percentage of SML (or restriction)
Worst-case calculation as a percentage of SML (or restriction), Application 2 ([3]; product SBDEV1285): 7.2 percentage of SML (or restriction)
Worst-case calculation as a percentage of SML (or restriction), Application 1 ([4]; product SBDEV980): 2.0 percentage of SML (or restriction)
Worst-case calculation as a percentage of SML (or restriction), Application 1 ([4]; product SBDEV1285): 2.0 percentage of SML (or restriction)
SML or Restriction (mg substance/kg food) [1]: 0.09 mg substance/kg food

c1ccc(-c2ccc(-c3nc(-c4ccc(-c5ccccc5)cc4)nc(-c4ccc(-c5ccccc5)cc4)n3)cc2)cc1 [1,3,5-Triazine, 2,4,6-Tris([1,1′-Biphenyl]-4-Yl)-]
SML (or restriction) [1]: 5 mg substance/kg food

NC(=O)c1ccc(-c2ccccc2)cc1 [0003815-20-1, 4-Phenylbenzamide]
Worst-case calculation as a percentage of SML (or restriction), EU Cube ([2]; product SBDEV980): 230 percentage of SML (or restriction)
Worst-case calculation as a percentage of SML (or restriction), EU Cube ([2]; product SBDEV1285): 230 percentage of SML (or restriction)
Worst Case Calculation of migration in EU Cube model (as a percentage of SML) [2, 5]: 230 percentage of SML
Worst-case calculation as a percentage of SML (or restriction), Application 2 ([3]; product SBDEV980): 331.2 percentage of SML (or restriction)
Worst-case calculation as a percentage of SML (or restriction), Application 2 ([3]; product SBDEV1285): 331.2 percentage of SML (or restriction)
Worst-case calculation as a percentage of SML (or restriction), Application 1 ([4]; product SBDEV980): 90.5 percentage of SML (or restriction)
Worst-case calculation as a percentage of SML (or restriction), Application 1 ([4]; product SBDEV1285): 90.5 percentage of SML (or restriction)
SML or Restriction (mg substance/kg food) [1]: 0.09 mg substance/kg food

c1ccc(-c2ccc(-c3nc(-c4ccc(-c5ccccc5)cc4)nc(-c4ccc(-c5ccccc5)cc4)n3)cc2)cc1 [0031274-51-8, 1,3,5-Triazine, 2,4,6-Tris([1,1′-Biphenyl]-4-Yl)-]
Worst-case calculation as a percentage of SML (or restriction), EU Cube ([2]; product SBDEV980): 0.3 percentage of SML (or restriction)
Worst-case calculation as a percentage of SML (or restriction), EU Cube ([2]; product SBDEV1285): 0.3 percentage of SML (or restriction)
Worst Case Calculation of migration in EU Cube model (as a percentage of SML) [2, 5]: 0.3 percentage of SML
Worst-case calculation as a percentage of SML (or restriction), Application 2 ([3]; product SBDEV980): 0.4 percentage of SML (or restriction)
Worst-case calculation as a percentage of SML (or restriction), Application 2 ([3]; product SBDEV1285): 0.4 percentage of SML (or restriction)
Worst-case calculation as a percentage of SML (or restriction), Application 1 ([4]; product SBDEV980): 0.1 percentage of SML (or restriction)
Worst-case calculation as a percentage of SML (or restriction), Application 1 ([4]; product SBDEV1285): 0.1 percentage of SML (or restriction)
SML or Restriction (mg substance/kg food) [1]: 5 mg substance/kg food

CCCCCCCC/C=C\CCCCCCCC(=O)OCC [0000111-62-6, Ethyl Oleate]
Worst-case calculation as a percentage of SML (or restriction), EU Cube ([2]; product SBDEV976): 24.0 percentage of SML (or restriction)
Worst-case calculation as a percentage of SML (or restriction), EU Cube ([2]; product SBDEV977): 24.0 percentage of SML (or restriction)
Worst-case calculation as a percentage of SML (or restriction), EU Cube ([2]; product SBDEV979): 22.7 percentage of SML (or restriction)
Worst-case calculation as a percentage of SML (or restriction), EU Cube ([2]; product SBDEV980): 24.0 percentage of SML (or restriction)
Worst-case calculation as a percentage of SML (or restriction), EU Cube ([2]; product SBDEV1284): 22.7 percentage of SML (or restriction)
Worst-case calculation as a percentage of SML (or restriction), EU Cube ([2]; product SBDEV1285): 22.7 percentage of SML (or restriction)
Worst-case calculation as a percentage of SML (or restriction), EU Cube ([2]; product SBDEV1286): 22.7 percentage of SML (or restriction)
Worst-case calculation as a percentage of SML (or restriction), EU Cube ([2]; product SBDEV1287): 22.7 percentage of SML (or restriction)
Worst Case Calculation of migration in EU Cube model (as a percentage of SML) ([2]; substance in ink SBDEV976 (Ex. 4C Cyan)): 24.0 percentage of SML
Worst Case Calculation of migration in EU Cube model (as a percentage of SML) ([2]; substance in ink SBDEV977 (Ex. 4A Yellow)): 24 percentage of SML
Worst Case Calculation of migration in EU Cube model (as a percentage of SML) ([2]; substance in ink SBDEV979 (Ex. 4D Black)): 22.2 percentage of SML
Worst Case Calculation of migration in EU Cube model (as a percentage of SML) [2, 5]: 24.0 percentage of SML
Worst-case calculation as a percentage of SML (or restriction), Application 2 ([3]; product SBDEV976): 34.6 percentage of SML (or restriction)
Worst-case calculation as a percentage of SML (or restriction), Application 2 ([3]; product SBDEV977): 34.6 percentage of SML (or restriction)
Worst-case calculation as a percentage of SML (or restriction), Application 2 ([3]; product SBDEV979): 32.7 percentage of SML (or restriction)
Worst-case calculation as a percentage of SML (or restriction), Application 2 ([3]; product SBDEV980): 34.5 percentage of SML (or restriction)
Worst-case calculation as a percentage of SML (or restriction), Application 2 ([3]; product SBDEV1284): 32.68 percentage of SML (or restriction)
Worst-case calculation as a percentage of SML (or restriction), Application 2 ([3]; product SBDEV1285): 32.68 percentage of SML (or restriction)
Worst-case calculation as a percentage of SML (or restriction), Application 2 ([3]; product SBDEV1286): 32.68 percentage of SML (or restriction)
Worst-case calculation as a percentage of SML (or restriction), Application 2 ([3]; product SBDEV1287): 32.68 percentage of SML (or restriction)
Worst-case calculation as a percentage of SML (or restriction), Application 1 ([4]; product SBDEV976): 9.42 percentage of SML (or restriction)
Worst-case calculation as a percentage of SML (or restriction), Application 1 ([4]; product SBDEV977): 9.42 percentage of SML (or restriction)
Worst-case calculation as a percentage of SML (or restriction), Application 1 ([4]; product SBDEV979): 8.92 percentage of SML (or restriction)
Worst-case calculation as a percentage of SML (or restriction), Application 1 ([4]; product SBDEV980): 9.45 percentage of SML (or restriction)
Worst-case calculation as a percentage of SML (or restriction), Application 1 ([4]; product SBDEV1284): 8.91 percentage of SML (or restriction)
Worst-case calculation as a percentage of SML (or restriction), Application 1 ([4]; product SBDEV1285): 8.91 percentage of SML (or restriction)
Worst-case calculation as a percentage of SML (or restriction), Application 1 ([4]; product SBDEV1286): 8.91 percentage of SML (or restriction)
Worst-case calculation as a percentage of SML (or restriction), Application 1 ([4]; product SBDEV1287): 8.91 percentage of SML (or restriction)
SML or Restriction (mg substance/kg food) [1]: 0.09 mg substance/kg food

O=Cc1ccc(Cl)cc1 [0000104-88-1, 4-Chlorobenzaldehyde]
Worst-case calculation as a percentage of SML (or restriction), EU Cube ([2]; product SBDEV980): 14 percentage of SML (or restriction)
Worst-case calculation as a percentage of SML (or restriction), EU Cube ([2]; product SBDEV1285): 14 percentage of SML (or restriction)
Worst Case Calculation of migration in EU Cube model (as a percentage of SML) [2, 5]: 14 percentage of SML
Worst-case calculation as a percentage of SML (or restriction), Application 2 ([3]; product SBDEV980): 20.2 percentage of SML (or restriction)
Worst-case calculation as a percentage of SML (or restriction), Application 2 ([3]; product SBDEV1285): 20.2 percentage of SML (or restriction)
Worst-case calculation as a percentage of SML (or restriction), Application 1 ([4]; product SBDEV980): 5.5 percentage of SML (or restriction)
Worst-case calculation as a percentage of SML (or restriction), Application 1 ([4]; product SBDEV1285): 5.5 percentage of SML (or restriction)
SML or Restriction (mg substance/kg food) [1]: 0.09 mg substance/kg food

O=C1NC(=O)C(=C2NC(=O)c3ccccc32)C(=O)N1 [0013481-50-0, 2,4,6(1H,3H,5H)-Pyrimidinetrione, 5-(2,3-Dihydro-3-Oxo-1H-Isoindol-1-Ylidene)-]
SML or Restriction (mg substance/kg food) [1]: 0.09 mg substance/kg food

NC(=O)c1ccc(-c2ccccc2)cc1 [4-Phenylbenzamide]
SML (or restriction) [1]: 0.09 mg substance/kg food
